# Reference: publication PMC12593347, “Profiling Class-Wide Bioactivities of Flavonoids While Minimizing Compound-Specific Effects Using an Equimolar Mixture Strategy” (Journal of Agricultural and Food Chemistry, 2025)
# Target: T1, amyloid-β1–42 (Aβ1–42) (Homo sapiens, UniProt P05067)
# T1 construct: gene APP; Aβ1–42 monomers, biotinylated, immobilized on streptavidin biosensor
# Test: biolayer interferometry (Octet R8), steady-state […] fit
# Format: binding
# T1 sequence (P05067 672-713): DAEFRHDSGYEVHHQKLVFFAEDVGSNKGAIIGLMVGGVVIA
smiles,measurement,value
O=C(O[C@@H]1Cc2c(O)cc(O)cc2O[C@@H]1c1cc(O)c(O)c(O)c1)c1cc(O)c(O)c(O)c1 [EGCG],Kd,93 µM
